IC50 data for two compounds are collected here from ChEMBL document CHEMBL2390831, “Steviol glycosides: chemical diversity, metabolism, and function” (J Nat Prod, 2013).

The test can be described thus: Antioxidant activity assessed as hydroxyl radical scavenging activity. Format: functional.

Structures are written as SMILES.

For the compound `C=C1C[C@@]23CC[C@H]4[C@@](C)(CCC[C@@]4(C)C(=O)O[C@@H]4O[C@H](CO)[C@@H](O)[C@H](O)[C@H]4O)[C@@H]2CC[C@]1(O[C@@H]1O[C@H](CO)[C@@H](O)[C@H](O)[C@H]1O[C@@H]1O[C@H](CO)[C@@H](O)[C@H](O)[C@H]1O)C3` [STEVIOSIDE], the IC50 (as a rule, the concentration that inhibits the measured activity by half) came out at 1500 µM. The value for `O=c1c(O)c(-c2ccc(O)c(O)c2)oc2cc(O)cc(O)c12` [QUERCETIN] was 110 µM.
